According to the CombiSolv-Exp solvation set (Vermeire and Green 2021):

Assay: solvent given as SMILES

CCCC(C)C
Details	solvation free energy, 298 K [kcal/mol]
in Brc1ccccc1	-3.41
in C1CCCCC1	-3.86
in C1CCOC1	-3.7
in C1COCCO1	-3.03
in C=CCCCC	-3.84
in C=CCCCCCC	-3.73
in C=CCCCCCCCC	-3.64
in C=CCCCCCCCCCCCCCC	-3.33
in CC1COC(=O)O1	-1.98
in CC#N	-2.5
in CC(=O)N(C)C	-2.65
in CC(=O)O	-2.72
in CC(=O)c1ccccc1	-2.84
in CC(C)=O	-3.08
in CC(C)CC(C)(C)C	-3.72
in CC(C)CCCC(C)CCCC(C)CCCCC(C)CCCC(C)CCCC(C)C	-3.28
in CC(C)CCO	-3.23
in CC(C)O	-3.02
in CC(C)OC(C)C	-3.78
in CCBr	-3.88
in CCC#N	-2.84
in CCC(C)=O	-3.27
in CCCC#N	-3.05
in CCCC(=O)OCC	-3.46
in CCCC(C)=O	-3.34
in CCCCC	-3.93
in CCCCCC	-3.87
in CCCCCC(C)=O	-3.35
in CCCCCCC	-3.78
in CCCCCCCC	-3.71
in CCCCCCCCC	-3.67
in CCCCCCCCCC	-3.63
in CCCCCCCCCCCC	-3.52
in CCCCCCCCCCCCCCCC	-3.45
in CCCCCCCCCOC(=O)c1ccccc1C(=O)OCCCCCCCCC	-3.02
in CCCCCCCCO	-3.18
in CCCCCCOC(C)=O	-3.42
in CCCCCO	-3.3
in CCCCO	-3.12
in CCCCOC(C)=O	-3.4
in CCCCOCCCC	-3.7
in CCCO	-3.01
in CCN(CC)CC	-3.81
in CCO	-2.97
in CCOC(C)=O	-3.29
in CCOCC	-3.78
in CCOCCOCCOCC	-3.21
in CCOc1ccccc1	-3.26
in CN1CCCC1=O	-2.55
in CN1CCCCC1=O	-2.58
in CN(C)C=O	-2.52
in CN(C)P(=O)(N(C)C)N(C)C	-2.88
in CNC=O	-2.24
in CO	-2.68
in COC(C)(C)C	-3.77
in COC(C)=O	-3.14
in COCCO	-2.53
in COc1ccccc1	-3.2
in CS(C)=O	-1.78
in Cc1ccc(C)cc1	-3.64
in Cc1ccccc1	-3.65
in Cc1ccccn1	-3.28
in ClC(Cl)(Cl)Cl	-3.85
in ClC(Cl)Cl	-3.72
in ClCCCl	-3.24
in ClCCl	-3.54
in Clc1ccccc1	-3.62
in FC(F)(F)C(F)(F)C(F)(F)C(F)(F)C(F)(F)C(F)(F)C(F)(F)C(F)(F)F	-2.43
in FC(F)(F)C(F)(F)C(F)(F)C(F)(F)C(F)(F)C(F)(F)F	-2.53
in Fc1ccccc1	-3.63
in ICI	-1.94
in N#Cc1ccccc1	-2.91
in Nc1ccccc1	-2.28
in O	2.51
in O=C1CCCCC1	-3.16
in O=C1CCCO1	-2.1
in OCc1ccccc1	-2.47
in S=C=S	-3.82
in c1ccccc1	-3.61
in c1ccncc1	-3.06

CCCCCC(C)=O
Details	solvation free energy, 298 K [kcal/mol]
in CC(C)CCCC(C)CCCC(C)CCCCC(C)CCCC(C)CCCC(C)C	-4.99
in CCCCCC	-5.36
in CCCCCCC	-5.22
in CCCCCCCC	-5.25
in CCCCCCCCCC	-5.18
in CCCCCCCCCCCCCCCC	-5.06
in CCCCCCCCO	-5.65
in CCCCOCCCC	-5.73
in CO	-5.98
in NC=O	-4.75
in O	-3.09
in [2H]O[2H]	-3.07

COc1cc(C(C)=O)cc(-c2cc(C(C)=O)cc(OC)c2O)c1O
Details	solvation free energy, 298 K [kcal/mol]
in CCC(C)=O	-21.7
in CCCO	-21.1
in Cc1ccccc1	-20.8
in ClC=CCl	-22
in O	-19.2

O=[N+]([O-])c1cc(Cl)ccc1Cl
Details	solvation free energy, 298 K [kcal/mol]
in C1CCCCC1	-8.11
in CC1CCCCC1	-8.06
in CC#N	-9.34
in CC(C)CC(C)(C)C	-7.63
in CC(C)CCO	-8.13
in CC(C)CO	-8.01
in CC(C)O	-8.07
in CCC(C)O	-7.92
in CCCCCC	-7.77
in CCCCCCC	-7.77
in CCCCCCCC	-7.75
in CCCCCCCCCC	-7.74
in CCCCCCCCCCCC	-7.71
in CCCCCCCCCO	-8.13
in CCCCCCCCO	-8.18
in CCCCCCCO	-8.19
in CCCCCCO	-8.22
in CCCCCO	-8.23
in CCCCO	-8.23
in CCCO	-8.23
in CCO	-8.32
in COC(C)=O	-9.35
in Cc1cccc(C)c1	-9.25
in Cc1ccccc1	-9.28

O=S=O
Details	solvation free energy, 298 K [kcal/mol]
in C1CCC2CCCCC2C1	-1.26
in C1CCCCC1	-1.23
in C1CCOC1	-3.93
in C1COCCO1	-3.41
in CC1COC(=O)O1	-3.16
in CC#N	-3.25
in CC(=O)N(C)C	-3.52
in CC(C)=O	-3.52
in CC(C)CC(C)(C)C	-1.17
in CCCCCCC	-1.36
in CCCCCCCC	-1.01
in CCCCCCCCCCCCCCCC	-1.1
in CCOC(C)=O	-3.22
in CN1CCCC1=O	-3.11
in CO	-2.84
in COC(=O)CC#N	-2.82
in COC(C)=O	-3.08
in COCCOCCO	-4.09
in COCCOCCOC	-4.02
in COCCOCCOCCOC	-3.89
in COCCOCCOCCOCCOC	-3.85
in CS(C)=O	-4.71
in ClCCCl	-2.55
in N#Cc1ccccc1	-2.59
in O	-2.07
in OCCO	-2.88
in OCc1ccccc1	-2.8
in c1ccncc1	-4.82

CC(=O)CC(=O)C(C)(C)C
Details	solvation free energy, 298 K [kcal/mol]
in O	-5.12

CC(C)=CC(C)(C)C
Details	solvation free energy, 298 K [kcal/mol]
in CCC(C)=O	-4.39
in O	1.84

S=C=S
Details	solvation free energy, 298 K [kcal/mol]
in C1CCCC1	-3.57
in C1COCCO1	-3.03
in CC(C)=O	-3.07
in CC(C)CC(C)(C)C	-3.25
in CCC(C)=O	-3.1
in CCCCCCC	-3.33
in CCCCCCCC	-3.29
in CCCCCCCCO	-3.11
in CCCCCO	-3.31
in CCCCO	-3.08
in CCO	-3.1
in CCOC(C)=O	-3.12
in CN(C)C=O	-3
in Cc1ccc(C)cc1	-3.55
in ClC(Cl)(Cl)Cl	-3.62
in ClC(Cl)=C(Cl)Cl	-3.52
in ClCCCl	-3.29
in N#Cc1ccccc1	-3.18
in O	0.16
in O=C1CCCCC1	-3.31
in c1ccccc1	-3.6

CCCI
Details	solvation free energy, 298 K [kcal/mol]
in C=CCCCCCCCCCCCCCC	-4.16
in ClC(Cl)(Cl)Cl	-4.97
in O	-0.56

Fc1ccccc1
Details	solvation free energy, 298 K [kcal/mol]
in C1CCOC1	-4.94
in C1COCCO1	-4.69
in CC(O)CO	-3.53
in CCCCCC	-4.15
in CCCCCCC	-4.13
in CCCCCCCCCC	-3.48
in CCCCCCCCCCCCCCCC	-3.81
in CN(C)C=O	-4.75
in COCCO	-4.4
in N#Cc1ccccc1	-4.53
in NC=O	-2.8
in O	-0.8
in OCCO	-2.91
